Results from patent US20050288185A1, “Substituted phenyluracils” (priority 2002, published 2005).

Tests used:
[1] = log P determination by HPLC (reversed-phase C18), EEC Directive 79/831 Annex V.A8; type: physicochemical; conditions: reversed-phase C18 HPLC column; pH 2.3; HPLC reversed-phase C18, 43° C.
Description: The log P values given in the table were determined in accordance with EEC Directive 79/831 Annex V.A8 by HPLC (High Performance Liquid Chromatography) using a reversed-phase column (C 18). Temperature: 43° C. (a) Mobile phases for the determination in the acidic range: 0.1% aqueous phosphoric acetonitrile; linear gradient from 10% acetonitrile to 90% acetonitrile—the sponding measurement results in Table 1 are marked ^a). (b) Mobile phases for the determination in the neutral range: 0.01 molar aqueous phosphate buffer solution, acetonitrile; linear gradient from 10% acetonitrile to 90% acetonitrile—the corresponding measurement results in Table 1 are marked^b). Calibration was carried out using unbranched alkan-2-ones (with 3 to 16 carbon atoms) with known log P values (determination of the log P values by the retention times using linear interpolation between two successive alkanones).

[2] = test system: weeds; assay: Post-emergence test (Example B), activity against weeds; type: in vivo; conditions: test plants 5-15 cm sprayed, rated after three weeks
From the text: (§1) Solvent: 5 parts by weight of acetone
(§2) Emulsifier: 1 part by weight of alkylaryl polyglycol ether
(§3) After three weeks, the degree of damage to the plants is rated in % damage in comparison to the development of the untreated control.

[3] = test system: weeds; assay: Pre-emergence test (Example A), activity against weeds; type: in vivo; conditions: soil sprayed 24 hours after sowing, rated after three weeks
From the text: as §1, §2
Seeds of the test plants are sown in normal soil.
as §3

COC(=O)c1ccoc1COc1cc(-n2c(=O)cc(C(F)(F)F)n(N)c2=O)c(F)cc1Br [Example 3, methyl 2-[2-bromo-5-(3-amino-2,6-dioxo-4-trifluoromethyl-3,6-dihydro-2H-pyrimidin-1-yl)-4-fluorophenoxymethyl]furan-3-carboxylate]
chromatographic logP [1]: 3 | activity against weeds (degree of damage) [2]: very strong activity against weeds | activity against weeds (degree of damage) [3]: very strong activity against weeds

COC(=O)c1occc1COc1cc(-n2c(=O)cc(C(F)(F)F)n(C)c2=O)c(F)cc1Br [Example 2, methyl 3-[2-bromo-5-(2,6-dioxo-3-methyl-4-trifluoromethyl-3,6-dihydro-2H-pyrimidin-1-yl)-4-fluorophenoxymethyl]furan-2-carboxylate]
chromatographic logP [1]: 3.34 | activity against weeds (degree of damage) [2]: very strong activity against weeds | activity against weeds (degree of damage) [3]: very strong activity against weeds
